{"source": "BindingDB's records for patent US20240308995", "about": "(Biogen Ma, 2024)", "molecular_target": "T1, Protein O-GlcNAcase (Homo sapiens, UniProt O60502)", "T1 sequence (O60502 whole entry)": "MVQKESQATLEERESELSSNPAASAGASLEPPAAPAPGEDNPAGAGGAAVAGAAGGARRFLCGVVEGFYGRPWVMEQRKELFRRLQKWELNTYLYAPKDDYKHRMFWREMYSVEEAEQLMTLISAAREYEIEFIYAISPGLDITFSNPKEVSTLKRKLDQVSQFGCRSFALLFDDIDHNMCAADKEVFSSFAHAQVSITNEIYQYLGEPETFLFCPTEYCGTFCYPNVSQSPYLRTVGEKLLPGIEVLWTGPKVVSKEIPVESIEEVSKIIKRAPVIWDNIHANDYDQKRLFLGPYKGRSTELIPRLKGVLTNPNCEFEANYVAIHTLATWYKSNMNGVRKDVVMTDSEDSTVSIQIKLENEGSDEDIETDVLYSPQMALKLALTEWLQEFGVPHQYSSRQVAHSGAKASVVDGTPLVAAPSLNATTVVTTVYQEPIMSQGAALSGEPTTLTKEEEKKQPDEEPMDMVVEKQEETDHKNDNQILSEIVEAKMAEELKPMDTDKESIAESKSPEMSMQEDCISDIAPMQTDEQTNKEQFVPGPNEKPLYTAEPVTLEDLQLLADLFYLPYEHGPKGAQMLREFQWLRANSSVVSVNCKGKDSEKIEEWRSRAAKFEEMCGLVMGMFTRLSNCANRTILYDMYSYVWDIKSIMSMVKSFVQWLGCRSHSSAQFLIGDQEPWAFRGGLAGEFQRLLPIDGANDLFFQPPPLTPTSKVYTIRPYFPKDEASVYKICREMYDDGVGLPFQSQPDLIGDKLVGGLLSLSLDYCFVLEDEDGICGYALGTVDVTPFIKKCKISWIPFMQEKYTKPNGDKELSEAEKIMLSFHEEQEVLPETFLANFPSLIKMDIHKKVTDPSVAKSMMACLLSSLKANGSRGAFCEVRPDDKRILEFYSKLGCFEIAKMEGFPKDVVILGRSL", "experiment": "Enzyme Inhibition Biochemical Assay", "protocol": "Recombinant full length human OGA enzyme was purchased from Origene. 4-MUGlcNAc substrate was purchased from Sigma. All other reagents were purchased from Sigma or Fisher. Assay buffer consists of the McIlvaine buffer system, pH 6.4 (0.2M Na2HPO4 mixed with 0.1M citric acid) and 0.01% BSA. […] Reactions were incubated for 90 minutes at room temperature and quenched with 40 μl of 3M glycine, pH 10 and read on a Perkin Elmer Envision plate reader (Ex: 355 nm/Em: 460 nm). Compounds were tested with a 10-point dose-response starting from 20 μM with a 4-fold dilution. Data was fit using GraphPad Prism using a 4-parameter fit with variable slope.", "data": [{"molecule": "CC(=O)Nc1ncc(CN2C[C@H](Oc3cc(=O)n(C)cn3)C[C@@H]2C)s1", "note": "[US20240308995, Example 1-70]", "values": [{"measurement": "IC50", "value": "< 1", "unit": "nM"}]}]}
